For the experiment, the system named is Papayas ‘Golden’. In words: Example 3: papaya skin color rating, MAP bags with different perforations. It is filed as in vivo. The note with it: for Skin color ratings: 100 ppb of MCP, scale 1 green to 5 yellow. The protocol:
Papayas ‘Golden’ were harvested in Linhares—Espírito Santo—Brazil. The fruits were packed in MAP Bags and put in cardboard boxes.
The appropriate weight of papayas was placed in each bag after harvest. Bags were placed in the same cardboard boxes used to export the fruits. Papayas then were cold stored at (11° C.) at the Laboratory.
The Test Protocol that was used was as follows. 40 MAP bags were packed. Each bag held approximately 3.8 kg (8.4 lb) of papayas. One of such bag was packed in each cardboard box. Total weight of papayas in MAP bags was approximately 152 kg. Approximately 8 kg of papayas were placed into cardboard boxes identical to those used for the MAP bags.
The MAP-packaged papayas were packaged as follows: Nine fruits, approximately 3.8 kg, were carefully placed into microperforated MAP-bags, and the bags were sealed by twisting the open side of the bag, folding down the twisted end, and placing a rubber band around the twisted and folded end of the bag.
All papayas were kept at cold temperature (11° C.) during 14 days and after that the fruits (packed in MAP bags or not) were put in room temperature (24° C.) during 5 days.
One day after harvest, when the papayas had around 30 lbf of average firmness, each treatment set was marked and placed in a hermetical chamber at cold temperature (11° C.). All chambers were of equal size and packed the same way. Treatment was for 12 hours.
In the chambers, SmartFresh™ was placed at the beginning of the treatment period for the 5 “MCP” treatment groups. The amount of SmartFresh™ was chosen to achieve the indicated concentration of 1-methylcyclopropene in the atmosphere of the chamber.
Evaluation for skin color and firmness was as follows. Day “zero” was the day the papayas were removed from the chamber and placed in storage.
The Papaya Skin Color was rated with the following scale: 1: green; 2: approximately 25%; 3: approximately 50% colored; 4: approximately 75% colored; 5: yellow.

The results in this text go back to patent US20190246658A1, “METHODS OF HANDLING PAPAYA” (AGROFRESH INC., priority 2013, published 2019).

As to `CC1=CC1` [MCP, 1-methylcyclopropene], for the setting “1-MCP alone (no MAP)”, the “papayas color, in words” value is reported as “did not hold the papayas color”. In addition, the Skin color ratings (24 Perf. MAP bag, 14 days at 11° C. then 0 days @ 24° C.) was determined as 1.60; the Skin color ratings (24 Perf. MAP bag, 14 days at 11° C. then 3 days @ 24° C.) was 2.04; the Skin color ratings (24 Perf. MAP bag, 14 days at 11° C. then 5 days @ 24° C.) turned out to be 3.75; the Skin color ratings (48 Perf. MAP bag, 14 days at 11° C. then 0 days @ 24° C.) is 1.96; the Skin color ratings (48 Perf. MAP bag, 14 days at 11° C. then 3 days @ 24° C.) stood at 3.02; the Skin color ratings (48 Perf. MAP bag, 14 days at 11° C. then 5 days @ 24° C.) came to 4.52. Further, the Skin color ratings by setting is: (90 Perf. MAP bag, 14 days at 11° C. then 0 days @ 24° C.) 1.71; (90 Perf. MAP bag, 14 days at 11° C. then 3 days @ 24° C.) 3.18; (90 Perf. MAP bag, 14 days at 11° C. then 5 days @ 24° C.) 4.36; (180 Perf. MAP bag, 14 days at 11° C. then 0 days @ 24° C.) 1.73; (180 Perf. MAP bag, 14 days at 11° C. then 3 days @ 24° C.) 4.13; (180 Perf. MAP bag, 14 days at 11° C. then 5 days @ 24° C.) 4.84. The Skin color ratings reads like this: (No Bag, 14 days at 11° C. then 0 days @ 24° C.) 1.82; (No Bag, 14 days at 11° C. then 3 days @ 24° C.) 4.11; (No Bag, 14 days at 11° C. then 5 days @ 24° C.) 4.96. In addition, the “skin coloring delay and external pulp firmness retention, in words” value (combination of 1-MCP and MAP bag versus any treatment alone) was “synergistic effect”.
